Results published in patent US11229642B2, “Composition and method for reducing neutropenia” (BeyondSpring Pharmaceuticals, Inc., priority 2016, dated 2022).
Read-outs that look alike come from different tables or passages of the source.

Key:
[1] = test system: doxorubicin induced neutropenia; test: Example 3: ANC in doxorubicin induced neutropenia; format: in vivo, Male Sprague-Dawley rats; conditions: for ANC level expressed as Percent Naïve Group (% Naïve): doxorubicin 3 mg/kg, plinabulin 7.5 mg/kg in the combination
Description: Male Sprague-Dawley rats were first treated with doxorubicin or vehicle saline (control). […] Each test group included 6 rats. The doxorubicin was administered intravenously, and plinabulin was administered through intraperitoneal injection.

[2] = test system: cyclophosphamide-induced neutropenia; conditions: for ANCs (Mean ± SD): Day −1 (pre-dose baseline), N = 5 rats per group
Description: The control sample contained 7.1% Tween 80 (v/v), 25.5% Propylene glycol (v/v), and 67.4% D5W (5% dextrose in water) (v/v). Each test group included 15 rats.
Blood collection was performed for absolute neutrophil counts in blood samples collected at Day −1 (pre-dose), Day 2 (24 h), Day 3 (48 h), Day 10 (9 days) and Day 15 (14 days).
These were expressed as a percentage of the control level on Day 3.

[3] = test system: cis-platin induced neutropenia; format: in vivo, Male Sprague-Dawley rats
Excerpt: Male Sprague-Dawley rats were first treated with cis-platin or vehicle saline (control). […] Each test group included 6 rats.
The ANC decreased following cisplatin administration.

[4] = test system: topotecan induced neutropenia; test: Example 5: ANC in topotecan induced neutropenia; format: in vivo, adult male Sprague-Dawley rats
Description: Topotecan (0.25 or 1.0 mg/kg IV) was administered to adult male Sprague-Dawley rats on Days 1, 3 and 5. Topotecan was administered by intravenous infusion over a period of 30 minutes using a syringe infusion pump and sterile disposable syringes at a dose volume of 10 mL/kg.
Plinabulin (3.75 mg/kg, IP) was dosed 1 hour post topotecan following each topotecan dose. Plinabulin (7.5 mg/kg IP) was dosed 1 hour after the topotecan dose (0.25 mg/kg) on Day 1 only.
Blood collection was performed Days −2, 0, 2, 4, 6, 7, 8, 9, 10 for the pilot and Days −2, 0, 2, 3, 4, 5, 6, 7, 8, 10, 15 for the main study. Blood samples collected on day 3 were analyzed for total and differential blood cell counts.

[5] = test system: neutropenia caused by cyclophosphamide; test: Example 1: neutrophil count after cyclophosphamide, plinabulin or the combination; format: in vivo, male Sprague-Dawley rats; conditions: all rats, Days −1, 2, 3 and 10; FIG. 3
Description: Fifteen rats each were placed in 4 treatment groups according to Table 1. The indicated doses were administered through intraperitoneal injection on Day 1 with Administration 2 being given 1 hour following Administration 1.
D5W is 5% dextrose in water for injection. For groups that included administration of plinabulin, plinabulin is first dissolved in the Tween 80-PG mixture and then diluted with D5W.
The animals were randomized based on body weight and assigned to groups. Before the initiation of dosing, any assigned animals considered unsuitable for use in the study were replaced by alternate animals obtained from the same shipment and maintained under the same environmental conditions.
Blood was collected by jugular venipuncture for Day −1 bleeds and terminally via abdominal aorta under anesthesia for Day 2 (5 rats per Group i.e. total 20 rats), Day 3 (5 rats per Group i.e. total 20 rats) and Day 10 (5 rats per Group i.e. total 20 rats). After collection, the samples were tested for total and differential cell counts. Five rats per group were terminated on Days 2, 3, and 10. Animals were anesthetized with isoflurane (1-5%) and ˜1-2.0 mL of blood will be collected via abdominal aorta. After collection, 0.3 mL was transferred to EDTA tubes and analyzed for total and differential cell counts. […]

## COc1cccc2c1C(=O)c1c(O)c3c(c(O)c1C2=O)C[C@@](O)(C(=O)CO)C[C@@H]3O[C@H]1C[C@H](N)[C@H](O)[C@H](C)O1 [Doxorubicin]
[1]; ANC as percentage of naïve animals, severity increased until Day 5
  time after administration at which neutropenia effect of doxorubicin was seen: ≤ 24 h
[1]; Day 2, doxorubicin 3.0 mg/kg IV alone
  ANC level, Mean: 4.37 ± 10^3/μL
[1]; Day 2
  ANC level expressed as Percent Naïve Group (% Naïve): 52.6%
[1]; Day 3, doxorubicin 3.0 mg/kg IV alone
  ANC level, Mean: 0.88 ± 10^3/μL
[1]; Day 3
  ANC level expressed as Percent Naïve Group (% Naïve): 50.9%
[1]; Day 4, doxorubicin 3.0 mg/kg IV alone
  ANC level, Mean: 1.02 ± 10^3/μL
[1]; Day 4
  ANC level expressed as Percent Naïve Group (% Naïve): 30.8%
[1]; Day 5, doxorubicin 3.0 mg/kg IV alone
  ANC level, Mean: 0.65 ± 10^3/μL
[1]; Day 5
  ANC level expressed as Percent Naïve Group (% Naïve): 19.2%
[1]; Day 8, doxorubicin 3.0 mg/kg IV alone
  ANC level, Mean: 0.97 ± 10^3/μL
[1]; Day 8
  ANC level expressed as Percent Naïve Group (% Naïve): 32.3%
[1]; Day −1 (pre-dose), doxorubicin 3.0 mg/kg IV group
  ANC level, Mean: 1.79 ± 10^3/μL
[1]; doxorubicin 3.0 mg/kg
  induction of neutropenia: induced a long-lasting neutropenia
[1]; doxorubicin 3 mg/kg IV single dose
  duration of ANC decrease following doxorubicin administration: at least 8 days

## O=P1(N(CCCl)CCCl)NCCCO1 (centres unmarked) [Cyclophosphamide]
[2]
  ANCs (Mean ± SD): 1.68 ± 0.19 10^3 Cells/μL
[2]; single intra-peritoneal injection of cyclophosphamide
  induction of neutropenia: induced neutropenia in rats at around 48 h

## N.N.[Cl][Pt][Cl] [Cisplatin, reference compound]
[3]; Day 3 (cisplatin ANC nadir), cisplatin 6.5 mg/kg alone
  ANCs: 0.93 ± 0.28 10^3 Cells/μL
[3]; Day −1 (predose), cisplatin 6.5 mg/kg group
  ANCs: 2.03 ± 0.81 10^3 Cells/μL
[3]; cisplatin 6.5 mg/kg alone
  Day 3 ANCs Expressed as Percent of Baseline (Day −1): 45.8%

## CC[C@@]1(O)C(=O)OCc2c1cc1n(c2=O)Cc2cc3c(CN(C)C)c(O)ccc3nc2-1 [topotecan, reference compound]
[4]; topotecan 1 or 0.25 mg/kg IV on Days 1, 3 and 5, FIGS. 11A, 11B
  induction of neutropenia: induced a long-lasting neutropenia

## CC(C)(C)c1[nH]cnc1/C=c1\[nH]c(=O)/c(=C/c2ccccc2)[nH]c1=O [Plinabulin, (3Z,6Z)-3-Benzylidene-6-{[5-(2-methyl-2-propanyl)-1H-imidazol-4-yl]methylene}-2,5-piperazinedione]
[5]
  reduction of neutropenia caused by cyclophosphamide, time course: reduced the neutropenia caused by cyclophosphamide
[1]; Day 2, plinabulin 7.5 mg/kg IP alone
  ANC level, Mean: 5.24 ± 10^3/μL
[1]; Day 3, plinabulin 7.5 mg/kg IP alone
  ANC level, Mean: 1.98 ± 10^3/μL
[1]; Day 4, plinabulin 7.5 mg/kg IP alone
  ANC level, Mean: 2.17 ± 10^3/μL
[1]; Day 5, plinabulin 7.5 mg/kg IP alone
  ANC level, Mean: 2.13 ± 10^3/μL
[1]; Day 8, plinabulin 7.5 mg/kg IP alone
  ANC level, Mean: 3.18 ± 10^3/μL
[1]; Day −1 (pre-dose), plinabulin 7.5 mg/kg IP group
  ANC level, Mean: 2.02 ± 10^3/μL
[1]; plinabulin 7.5 mg/kg IP alone, all time points
  ANC in plinabulin only treated rats vs naïve animals: not statistically different from naïve animals at any time point
[1]; plinabulin 7.5 mg/kg, Days 2 and 3 post dose
  effect of plinabulin on doxorubicin effect (ANC), Days 2 and 3: significantly diminished the effect of doxorubicin
[1]; plinabulin 7.5 mg/kg, days 5 and 8
  effect of plinabulin on doxorubicin-induced neutropenia, days 5 and 8: ameliorated the doxorubicin-induced neutropenia to a lesser degree
[1]; plinabulin 3.5 and 7.5 mg/kg IP, one hour after doxorubicin
  effect of plinabulin on doxorubicin-induced neutropenia: significantly reduced the doxorubicin-induced neutropenia
[3]; Day 3, plinabulin 4.9 mg/kg alone
  ANCs: 2.42 ± 0.73 10^3 Cells/μL
[3]; Day 3, plinabulin 7.5 mg/kg alone
  ANCs: 4.55 ± 1.41 10^3 Cells/μL
[3]; Day −1 (predose), plinabulin 4.9 mg/kg group
  ANCs: 1.98 ± 0.47 10^3 Cells/μL
[3]; Day −1 (predose), plinabulin 7.5 mg/kg group
  ANCs: 2.12 ± 0.25 10^3 Cells/μL
[3]; plinabulin 2.3 mg/kg, 4.9 mg/kg and 7.5 mg/kg one hour post cisplatin, Day 3
  ANC levels vs predose levels, plinabulin one hour post cisplatin: not significantly different from the predose levels
[3]; plinabulin 4.9 mg/kg alone
  Day 3 ANCs Expressed as Percent of Baseline (Day −1): 122.2%
[3]; plinabulin 4.9 mg/kg alone, Day 3 vs predose
  change of ANC levels by plinabulin alone: did not change ANC levels
[3]; plinabulin 7.5 mg/kg alone
  Day 3 ANCs Expressed as Percent of Baseline (Day −1): 214.6%
[4]; plinabulin 3.75 and 7.5 mg/kg IP, one hour after topotecan
  effect of plinabulin on topotecan-induced neutropenia: significantly reduced the topotecan-induced neutropenia
[2]
  ANCs (Mean ± SD): 1.69 ± 0.21 10^3 Cells/μL
